# Test results: patent publication EP0815110B1
# Where two headings read alike, the source gives them in different places.
# How the values were obtained:
# Type in all cases: biochemical, Ratte
# [1] = molecular target: NADH-Ubichinon-1-Reduktase (Rattus norvegicus, UniProt A6K8N6+P03889+Q641Y2); test: NADH-ubiquinone-1 reductase (complex I) test, spectrophotometric at 340 nm
# Succinat-Dehydrogenase = molecular target: T1, Succinat-Dehydrogenase (Rattus norvegicus, UniProt P21913+Q641Z9+Q6PCT8+Q920L2); test: Succinate dehydrogenase (complex II) activity; settings: Rattenhirn-Homogenate
# T1 construct: Hemmung des Komplexes I bzw; II der mitochondrialen Atmungskette in Rattenhirn-Homogenaten; from tissue; host or cells: rat brain homogenate
# T1 sequence (Q920L2 35-656): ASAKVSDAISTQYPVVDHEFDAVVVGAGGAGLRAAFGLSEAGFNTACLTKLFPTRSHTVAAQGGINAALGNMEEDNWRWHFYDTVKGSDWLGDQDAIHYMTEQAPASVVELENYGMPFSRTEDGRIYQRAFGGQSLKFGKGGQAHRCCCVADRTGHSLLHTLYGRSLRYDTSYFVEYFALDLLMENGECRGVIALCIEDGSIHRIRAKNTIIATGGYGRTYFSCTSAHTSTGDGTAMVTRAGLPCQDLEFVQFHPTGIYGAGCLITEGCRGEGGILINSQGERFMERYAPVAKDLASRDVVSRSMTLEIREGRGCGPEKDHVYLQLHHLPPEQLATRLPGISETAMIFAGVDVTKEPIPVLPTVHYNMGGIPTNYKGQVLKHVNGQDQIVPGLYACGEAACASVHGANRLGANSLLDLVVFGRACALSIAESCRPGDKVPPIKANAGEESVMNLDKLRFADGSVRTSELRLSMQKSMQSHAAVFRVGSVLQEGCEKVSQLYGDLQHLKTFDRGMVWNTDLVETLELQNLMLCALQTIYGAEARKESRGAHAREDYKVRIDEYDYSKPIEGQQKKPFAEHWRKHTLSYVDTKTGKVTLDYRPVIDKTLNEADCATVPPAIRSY
# T1 sequence (P21913 31-282): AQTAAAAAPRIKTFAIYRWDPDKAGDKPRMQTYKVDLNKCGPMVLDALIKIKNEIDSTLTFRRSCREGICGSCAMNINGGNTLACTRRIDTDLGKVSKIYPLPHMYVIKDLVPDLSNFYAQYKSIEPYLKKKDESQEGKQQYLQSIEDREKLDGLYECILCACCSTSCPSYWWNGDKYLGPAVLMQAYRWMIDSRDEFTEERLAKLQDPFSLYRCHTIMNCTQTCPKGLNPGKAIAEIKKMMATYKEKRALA
# T1 sequence (Q641Z9 1-169): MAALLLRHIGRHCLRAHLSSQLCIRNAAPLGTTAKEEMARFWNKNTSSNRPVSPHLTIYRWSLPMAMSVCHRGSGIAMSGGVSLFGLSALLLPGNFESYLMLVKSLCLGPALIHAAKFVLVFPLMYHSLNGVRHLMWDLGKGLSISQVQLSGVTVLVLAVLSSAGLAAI
# T1 sequence (Q6PCT8 57-159): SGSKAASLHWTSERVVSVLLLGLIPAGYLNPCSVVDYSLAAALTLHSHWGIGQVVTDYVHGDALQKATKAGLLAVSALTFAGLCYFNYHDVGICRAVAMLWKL
# [2] = system: Succinat-Cytochrom-c-Reduktase; test: Succinate-cytochrome-c reductase test (complex II/III), spectrophotometric at 550 nm
# Method: Die Isolierung von SMP's aus Rattenleber erfolgte nach (Ragan et al., 1987; Rickwood et al., 1987). • 8.1 Hemmung des Komplexes I der Atmungskette in SMP's durch N-Me-TaClo Komplex I (NADH-Dehydrogenase) der mitochondrialen Atmungskette katalysiert im ersten Schritt eine NADH-Oxidation. Die dabei freiwerdenden Elektronen werden in einem zweiten Schritt auf Coenzym Q bzw. Ubichinon übertragen. Ein typischer Testansatz (modifiziert nach Ragan et al., 1987) enthält dabei 20 mM K-Phosphat Puffer, pH 8.0, 0.2 mM NADH, 1 mM KCN, SMP (ca. 0.3 mg Protein/ml) und +/- 250 µM N-Me-TaClo (25 mM methanolische Stammlösung). Der Start der Reaktion erfolgt durch Zugabe von 50 µM Ubichinon-1. Die Messung der Reaktion erfolgt spektralphotometrisch bei einer Wellenlänge von 340 nm während der linearen Phase. Bei Zugabe von N-Me-TaClo erfolgt eine 100proz. Hemmung der Ubichinon-Reduktion (s.a. Tabelle 1). • 8.2 Hemmung der elektronenübertragenden Reaktionen auf Coenzym Q: NADH-Cytochrom-c-Reduktase und Succinat-Cytochrom-c-Reduktase Coenzym Q wird sowohl durch freiwerdende Elektronen bei der Komplex-I-katalysierten NADH-Oxidation, als auch bei der Komplex-II (Succinat-Coenzym-Q-Reduktase) -katalysierten Reaktion reduziert. Messungen dieser Reaktionswege mit anschließendem Elektronenfluß über den Komplex III bis zur Cytochrom-c-Reduktion lassen sich mittels folgender Tests untersuchen und durch die hier vorgestellten halogenierten β-Carbolinderivate (im folgenden am Beispiel von N-Me-TaClo) hemmen: • NADH-Cytochrom-c-Reduktase-Test (modifiziert nach Sottocasa et al., 1967) Ein typischer Testansatz enthält 25 mM K-Phosphat-Puffer, pH 7.5, 0.2 mM NADH, 0.1 mM Cytochrom-c, 0.5 mM KCN und +/- 250 µM N-Me-TaClo (25 mM methanolische Stammlösung). Die Messung der Reaktion erfolgt spektralphotometrisch bei einer Wellenlänge von 550 nm während der linearen Phase. Bei Zugabe von N-Me-Taclo erfolgt eine 100proz. Hemmung der Reaktion (s.a. Tabelle 1). • - Succinat-Cytochrom-c-Reduktase-Test (modifiziert nach Sottocasa et al., 1967) Ein typischer Testansatz enthält 55 mM K-Phosphat-Puffer, pH 7.5, 3 mM Na-Succinat, 0.1 mM Cytochrom c, +/- 250 µM N-Me-TaClo (25 mM methanolische Stammlösung) und 0.5 mM KCN. Gestartet wird die Reaktion mit SMP (ca. 0.3 mg Protein/ml). Die Messung der Reaktion erfolgt spektralphotometrisch bei einer Wellenlänge von 550 nm während der linearen Phase. Bei Zugabe von N-Me-TaClo erfolgt eine 100proz. Hemmung der Reaktion (s. auch Tabelle 1). • - Einsatz der halogenierten β-Carboline als Hemmstoffe der NADH- bzw. Succinat-gekoppelten Oxidation; Polarographische Messungen der Enzymaktivitäten an SMP's ("submitochondrial particles") Bei der polarographischen Messung wird die Aktivität der Atmungskette in ihrer Gesamtheit ausgehend von der NADH-Oxidation (Komplex I) bzw. […]
# [3] = molecular target: NADH-Cytochrom-c-Reduktase (Rattus norvegicus, UniProt A6K8N6+P03889+Q641Y2); test: NADH-cytochrome-c reductase test (complex I/III), spectrophotometric at 550 nm
# Sequence of NADH-Cytochrom-c-Reduktase (Q641Y2 34-463): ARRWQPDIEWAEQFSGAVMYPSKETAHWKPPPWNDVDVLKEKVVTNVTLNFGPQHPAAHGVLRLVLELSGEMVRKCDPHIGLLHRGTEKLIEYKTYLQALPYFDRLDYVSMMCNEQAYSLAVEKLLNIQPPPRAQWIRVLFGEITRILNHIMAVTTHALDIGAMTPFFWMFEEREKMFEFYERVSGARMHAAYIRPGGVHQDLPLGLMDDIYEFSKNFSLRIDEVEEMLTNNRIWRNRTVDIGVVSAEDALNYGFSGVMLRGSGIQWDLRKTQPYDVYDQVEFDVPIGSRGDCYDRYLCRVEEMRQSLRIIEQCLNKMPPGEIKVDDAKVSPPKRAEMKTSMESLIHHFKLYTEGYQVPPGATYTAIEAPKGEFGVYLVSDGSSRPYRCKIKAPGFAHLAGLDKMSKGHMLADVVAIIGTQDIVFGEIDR
# Sequence of NADH-Cytochrom-c-Reduktase (P03889 whole entry): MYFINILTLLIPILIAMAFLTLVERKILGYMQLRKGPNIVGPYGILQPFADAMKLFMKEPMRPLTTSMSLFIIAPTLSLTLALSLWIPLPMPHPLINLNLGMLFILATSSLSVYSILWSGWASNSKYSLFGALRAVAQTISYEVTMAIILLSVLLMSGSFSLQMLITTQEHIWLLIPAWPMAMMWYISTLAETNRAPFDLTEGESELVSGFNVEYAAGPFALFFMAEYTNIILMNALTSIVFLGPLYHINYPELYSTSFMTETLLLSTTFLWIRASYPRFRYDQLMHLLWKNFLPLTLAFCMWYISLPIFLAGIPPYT
# Sequence of NADH-Cytochrom-c-Reduktase (A6K8N6 entry or part of it): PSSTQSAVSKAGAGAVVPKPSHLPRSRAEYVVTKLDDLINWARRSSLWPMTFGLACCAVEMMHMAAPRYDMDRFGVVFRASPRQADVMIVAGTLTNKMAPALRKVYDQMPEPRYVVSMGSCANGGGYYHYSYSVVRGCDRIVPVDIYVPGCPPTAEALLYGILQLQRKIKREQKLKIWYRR
# Method: Die Isolierung von SMP's aus Rattenleber erfolgte nach (Ragan et al., 1987; Rickwood et al., 1987). • 8.1 Hemmung des Komplexes I der Atmungskette in SMP's durch N-Me-TaClo Komplex I (NADH-Dehydrogenase) der mitochondrialen Atmungskette katalysiert im ersten Schritt eine NADH-Oxidation. Die dabei freiwerdenden Elektronen werden in einem zweiten Schritt auf Coenzym Q bzw. Ubichinon übertragen. Ein typischer Testansatz (modifiziert nach Ragan et al., 1987) enthält dabei 20 mM K-Phosphat Puffer, pH 8.0, 0.2 mM NADH, 1 mM KCN, SMP (ca. 0.3 mg Protein/ml) und +/- 250 µM N-Me-TaClo (25 mM methanolische Stammlösung). Der Start der Reaktion erfolgt durch Zugabe von 50 µM Ubichinon-1. Die Messung der Reaktion erfolgt spektralphotometrisch bei einer Wellenlänge von 340 nm während der linearen Phase. Bei Zugabe von N-Me-TaClo erfolgt eine 100proz. Hemmung der Ubichinon-Reduktion (s.a. Tabelle 1). • 8.2 Hemmung der elektronenübertragenden Reaktionen auf Coenzym Q: NADH-Cytochrom-c-Reduktase und Succinat-Cytochrom-c-Reduktase Coenzym Q wird sowohl durch freiwerdende Elektronen bei der Komplex-I-katalysierten NADH-Oxidation, als auch bei der Komplex-II (Succinat-Coenzym-Q-Reduktase) -katalysierten Reaktion reduziert. Messungen dieser Reaktionswege mit anschließendem Elektronenfluß über den Komplex III bis zur Cytochrom-c-Reduktion lassen sich mittels folgender Tests untersuchen und durch die hier vorgestellten halogenierten β-Carbolinderivate (im folgenden am Beispiel von N-Me-TaClo) hemmen: • NADH-Cytochrom-c-Reduktase-Test (modifiziert nach Sottocasa et al., 1967) Ein typischer Testansatz enthält 25 mM K-Phosphat-Puffer, pH 7.5, 0.2 mM NADH, 0.1 mM Cytochrom-c, 0.5 mM KCN und +/- 250 µM N-Me-TaClo (25 mM methanolische Stammlösung). Die Messung der Reaktion erfolgt spektralphotometrisch bei einer Wellenlänge von 550 nm während der linearen Phase. Bei Zugabe von N-Me-Taclo erfolgt eine 100proz. Hemmung der Reaktion (s.a. Tabelle 1). • - Succinat-Cytochrom-c-Reduktase-Test (modifiziert nach Sottocasa et al., 1967) Ein typischer Testansatz enthält 55 mM K-Phosphat-Puffer, pH 7.5, 3 mM Na-Succinat, 0.1 mM Cytochrom c, +/- 250 µM N-Me-TaClo (25 mM methanolische Stammlösung) und 0.5 mM KCN. Gestartet wird die Reaktion mit SMP (ca. 0.3 mg Protein/ml). Die Messung der Reaktion erfolgt spektralphotometrisch bei einer Wellenlänge von 550 nm während der linearen Phase. Bei Zugabe von N-Me-TaClo erfolgt eine 100proz. Hemmung der Reaktion (s. auch Tabelle 1). • - Einsatz der halogenierten β-Carboline als Hemmstoffe der NADH- bzw. Succinat-gekoppelten Oxidation; Polarographische Messungen der Enzymaktivitäten an SMP's ("submitochondrial particles") Bei der polarographischen Messung wird die Aktivität der Atmungskette in ihrer Gesamtheit ausgehend von der NADH-Oxidation (Komplex I) bzw. Succinat-Oxidation (Komplex II) bis zur O2-Reduktion (Komplex IV) bestimmt. Als Maß der Aktivität wird der O2-Verbrauch bestimmt. Der Test wird unter Verwendung einer Clark-Sauerstoffelektrode (Rank Brothers, England) bei 30°C in 2 ml Puffer (50 mM K-Phosphat, pH 7.4, 250 mM Saccharose) und 0.15 mg SMP-Protein/ml durchgeführt. Nach 5 minütiger Vorinkubation ± Inhibitor wird die Messung mit NADH (Endkonzentration 0.28 mM) bzw. Succinat (Endkonzentration 20 mM) gestartet. Bei der Succinat-gekoppelten Oxidation werden die SMP's vorher nach Krueger et al., (1993) mit Malonat aktiviert.
# NADH-Oxidase = NADH-Oxidase (Rattus norvegicus, UniProt A6K8N6+P03889+Q641Y2); test: NADH oxidase activity of complex I of the mitochondrial respiratory chain
# Cytochrom c Oxidase = Cytochrom c Oxidase (Rattus norvegicus, UniProt P00406+P05503); test: Cytochrome c oxidase (complex IV) activity; settings: 500 µM TaClo, Rattenhirn-Homogenate
# [4] = bei 500 µmol, Rattenhirn-Homogenate, read-out: Komplex-I-Hemmung Inhibierungsrate (in %) bei gegebener Konzentration (in µmol)
# [5] = bei 250 µmol, read-out: Komplex-II-Hemmung Inhibierungsrate (in %) bei gegebener Konzentration (in µmol)
# [6] = bei 500 µmol, read-out: Komplex-II-Hemmung Inhibierungsrate (in %) bei gegebener Konzentration (in µmol)
# [7] = read-out: Inhibierungsrate durch TaClo
# Sequence of NADH-Ubichinon-1-Reduktase (P03889 whole entry): as the sequence (P03889 whole entry) above
# Sequence of NADH-Ubichinon-1-Reduktase (Q641Y2 34-463): as the sequence (Q641Y2 34-463) above
# Sequence of NADH-Ubichinon-1-Reduktase (A6K8N6 entry or part of it): as the sequence (A6K8N6 entry or part of it) above
smiles,measurement,setting,value
O=C(CCl)N1CCc2c([nH]c3ccccc23)C1C(Cl)(Cl)Cl (racemic) [N-Monochloracetyl-TaClo],inhibition at 500 µM,[1]; [4],95%
CC(=O)N1CCc2c([nH]c3ccccc23)C1C(Cl)(Cl)Cl (racemic) [N-Acetyl-TaClo],inhibition at 500 µM,[1]; [4],20%
O=CN1CCc2c([nH]c3ccccc23)C1=C(Br)Br [N-Formyl-dibrommethylen-TaBro],inhibition at 500 µM,[1]; [4],≥ 100%
ClC(Cl)(Cl)C1c2[nH]c3ccccc3c2CCN1Cc1ccccc1 (racemic) [N-Bzl-TaClo],inhibition at 250 µM,Succinat-Dehydrogenase; [5],55%
CN1CCc2c([nH]c3ccccc23)C1C(Cl)(Cl)Cl (racemic) [N-Me-TaClo],inhibition at 250 µM,"[1]; 250 µM N-Me-TaClo, SMP's aus Rattenleber, read-out: Hemmung der Ubichinon-Reduktion",100%
same,inhibition at 250 µM,"[1]; NADH-Ubichinon-1-Reduktase, 250 µM, Rattenhirn-Homogenate, read-out: Inhibierung bei 250 µM N-Me-TaClo",100%
same,inhibition at 250 µM,"Succinat-Dehydrogenase; Succinat-Dehydrogenase, 250 µM, read-out: Inhibierung bei 250 µM N-Me-TaClo",100%
same,inhibition at 250 µM,Succinat-Dehydrogenase; [5],≥ 100%
same,Hemmung der Reaktion (Succinat-Cytochrom-c-Reduktase-Test),"[2]; 250 µM N-Me-TaClo, SMP's aus Rattenleber",100 proz.
same,Inhibierung bei 250 µM N-Me-TaClo,"[2]; Succinat-Cytochrom-c-Reduktase, 250 µM, Rattenhirn-Homogenate",80%
same,inhibition at 250 µM,"[3]; 250 µM N-Me-TaClo, SMP's aus Rattenleber, read-out: Hemmung der Reaktion (NADH-Cytochrom-c-Reduktase-Test)",100%
same,inhibition at 250 µM,"[3]; NADH-Cytochrom-c-Reduktase, 250 µM, Rattenhirn-Homogenate, read-out: Inhibierung bei 250 µM N-Me-TaClo",70%
same,inhibition at 250 µM,"NADH-Oxidase; NADH-Oxidase, 250 µM, Rattenhirn-Homogenate, read-out: Inhibierung bei 250 µM N-Me-TaClo",0%
C=CCN1CCc2c([nH]c3ccccc23)C1C(Cl)(Cl)Cl (racemic) [N-Allyl-TaClo],inhibition at 500 µM,Succinat-Dehydrogenase; [6],≥ 100%
"ClC(Cl)(Cl)C1NCCc2c1[nH]c1ccccc21 (racemic) [TaClo, 1-Trichlormethyl-1,2,3,4-tetrahydro-β-carbolin]",Enzymaktivität (nmol/min/mg Protein),"[1]; NADH CoQ1 Reduktase, 500 µM TaClo, Rattenhirn-Homogenate, Kontrolle 10.9",1.6 nmol/min/mg Protein
same,inhibition at 500 µM,[1]; [7],85%
same,Enzymaktivität (nmol/min/mg Protein),"Succinat-Dehydrogenase; Succinat Dehydrogenase, 500 µM TaClo, Kontrolle 29.6",30.1 nmol/min/mg Protein
same,inhibition at 500 µM,"Succinat-Dehydrogenase; Succinat Dehydrogenase, 500 µM TaClo, read-out: Inhibierungsrate durch TaClo",0%
same,inhibition at 500 µM,Succinat-Dehydrogenase; [6],30%
same,Enzymaktivität (nmol/min/mg Protein),Cytochrom c Oxidase; Kontrolle 45.8,38.9 nmol/min/mg Protein
same,inhibition at 500 µM,Cytochrom c Oxidase; [7],20%
same,Inhibierungsrate durch TaClo,"[2]; Succinat Cyt c Reduktase, 500 µM TaClo, Rattenhirn-Homogenate",22%
same,Enzymaktivität (nmol/min/mg Protein),"[2]; Succinat Cyt c Reduktase, 500 µM TaClo, Rattenhirn-Homogenate, Kontrolle 11.9",9.2 nmol/min/mg Protein
same,Enzymaktivität (nmol/min/mg Protein),"[3]; NADH Cyt c Reduktase, 500 µM TaClo, Rattenhirn-Homogenate, Kontrolle 24.6",14.7 nmol/min/mg Protein
same,inhibition at 500 µM,[3]; [7],40%
same,Enzymaktivität (nmol/min/mg Protein),"NADH-Oxidase; NADH-Oxidase, 500 µM TaClo, Rattenhirn-Homogenate, Kontrolle 141.0",138.0 nmol/min/mg Protein
same,inhibition at 500 µM,NADH-Oxidase; [7],0%
same,Einfluß auf die NADH-Oxidation,"NADH-Oxidase; result in words, s. Tabelle 2",beeinflußt jedoch nicht die NADH-Oxidation
"C=C(C)[C@H]1Cc2c(ccc3c2O[C@@H]2COc4cc(OC)c(OC)cc4[C@@H]2C3=O)O1 [Rotenon, reference compound]",Enzymaktivität (nmol/min/mg Protein),[1],4.2 nmol/min/mg Protein
same,Enzymaktivität (nmol/min/mg Protein),[3],5.7 nmol/min/mg Protein
"FC(F)(F)C1=NCCc2c1[nH]c1ccccc21 [DDH-TaFlu, 1-Trifluormethyl-3,4-didehydro-β-carbolin]",inhibition at 250 µM,Succinat-Dehydrogenase; [5],20%
O=CN1CCc2c([nH]c3ccccc23)C1C(Br)(Br)Br (racemic) [N-Formyl-TaBro],inhibition at 500 µM,[1]; [4],83%
CCN1CCc2c([nH]c3ccccc23)C1C(Cl)(Cl)Cl (racemic) [N-Ethyl-TaClo],inhibition at 500 µM,Succinat-Dehydrogenase; [6],75%
ClC(Cl)=C1NCCc2c1[nH]c1ccccc21 [Dichlormethylen-TaClo],inhibition at 250 µM,Succinat-Dehydrogenase; [5],40%
O=C(N1CCc2c([nH]c3ccccc23)C1C(Cl)(Cl)Cl)C(Cl)(Cl)Cl (racemic) [N-Trichloracetyl-TaClo],inhibition at 500 µM,[1]; [4],90%
COC(=O)[C@@H]1Cc2c([nH]c3ccccc23)C(C(Cl)(Cl)Cl)N1 (stereo partly shown) [3-COOMe-TaClo],inhibition at 500 µM,Succinat-Dehydrogenase; [6],75%
COC(=O)C1Cc2c([nH]c3ccccc23)C(C(Cl)(Cl)Cl)N1Cc1ccccc1 (stereo not shown) [N-Bzl-3-COOMe-TaClo],inhibition at 500 µM,Succinat-Dehydrogenase; [6],60%
